Data on 16 compounds can be found in patent US9249104B2, “Pyrazole indanyl carboxamides” (BAYER CROPSCIENCE AG, priority 2012, dated 2016).

The subject of data set [1] is Puccinia recondita. The experiment in a line: In vivo preventive test on Puccinia recondita (brown rust on wheat). Conditions: graded 12 days after contamination. The method, then: Wheat plants (“Scipion” variety), sown in starter cups on a 50/50 peat soil-pozzolana substrate and grown at 22° C., are treated at the 1-leaf stage (10 cm height) by spraying with the active ingredient prepared as described above. Plants, used as controls, are treated with the mixture of acetone/tween/DMSO/water not containing the active material. After 24 hours, the plants are contaminated by spraying the leaves with an aqueous suspension of Puccinia recondita spores (100 000 spores per ml). The spores are collected from an infected plant and are suspended in water to containing 2.5 ml/l of Tween 80 at 10%. […] Grading (% of efficacy) is carried out 12 days after the contamination, in comparison with the control plants.

Data set [2] deals with Sphaerotheca fuliginea. The experiment in a line: In vivo preventive test on Sphaerotheca fuliginea (powdery mildew on cucurbits). The conditions noted are these: graded 12 days after contamination. The method, then: Gherkin plants (“Vert petit de Paris” variety), sown in starter cups on a 50/50 peat soil-pozzolana substrate and grown at 24° C., are treated at the Z11 cotyledon stage by spraying with the active ingredient prepared as described above. Plants, used as controls, are treated with the mixture of acetone/tween/DMSO/water not containing the active material. After 24 hours, the plants are contaminated by spraying the cotyledons with an aqueous suspension of Sphaerotheca fuliginea spores (100 000 spores per ml). The spores are collected from infected plants. […] Grading (% of efficacy) is carried out 12 days after the contamination, in comparison with the control plants.

Data set [3] concerns Alternaria brassicae. Put plainly: In vivo preventive test on Alternaria brassicae (leaf spot on radish). Conditions: 500 ppm, radish plants sprayed 24 h before contamination, graded 6 days after contamination. The method, then: Radish plants (“Pernod Clair” variety), sown in starter cups on a 50/50 peat soil-pozzolana substrate and grown at 17° C., are treated at the cotyledon stage by spraying with the active ingredient prepared as described above. Plants, used as controls, are treated with the mixture of acetone/tween/DMSO/water not containing the active material. After 24 hours, the plants are contaminated by spraying the cotyledons with an aqueous suspension of Alternaria brassicae spores (50 000 spores per ml). The spores are collected from a 15-day-old culture. The contaminated radish plants are incubated at 20° C. and at 100% relative humidity. Grading (% of efficacy) is carried out 6 days after the contamination, in comparison with the control plants.

For data set [4], the system named is Pyrenophora teres. The experiment in a line: In vivo preventive test on Pyrenophora teres (net blotch on barley). Conditions: graded 14 days after contamination; for Efficacy: comparison with prior-art compound. The method, then: Barley plants (“Plaisant” variety), sown in starter cups on a 50/50 peat soil-pozzolana substrate and grown at 22° C., are treated at the 1-leaf stage (10 cm height) by spraying with the active ingredient prepared as described above. Plants, used as controls, are treated with the mixture of acetone/tween/DMSO/water not containing the active material. After 24 hours, the plants are contaminated by spraying the leaves with an aqueous suspension of Pyrenophora teres spores (12 000 spores per ml). The spores are collected from a 12-day-old culture. […] Grading (% of efficacy) is carried out 14 days after the contamination, in comparison with the control plants.

In data set [5] the test system is Uromyces appendiculatus. The experiment in a line: In vivo preventive test on Uromyces appendiculatus (bean rust). Conditions: bean plants. The method, then: Bean plants (“Saxa” variety), sown in starter cups on a 50/50 peat soil-pozzolana substrate and grown at 24° C., are treated at the 2-leaf stage (9 cm height) by spraying with the active ingredient prepared as described above. Plants, used as controls, are treated with the mixture of acetone/tween/DMSO/water not containing the active material. After 24 hours, the plants are contaminated by spraying the leaves with an aqueous suspension of Uromyces appendiculatus spores (150 000 spores per ml). The spores are collected from infected plants and are suspended in water containing 2.5 ml/1 of Tween 80 at 10%. […] Grading (% of efficacy) is carried out 11 days after the contamination, in comparison with the control plants.

In data set [6] the test system is Septoria tritici. The experiment in a line: In vivo preventive test on Septoria tritici (leaf spot on wheat). Conditions: 500 ppm, wheat plants sprayed 24 h before contamination, graded 24 days after contamination. The procedure: Wheat plants (“Scipion” variety), sown in starter cups on a 50/50 peat soil-pozzolana substrate and grown at 22° C., are treated at the 1-leaf stage (10 cm height) by spraying with the active ingredient prepared as described above. Plants, used as controls, are treated with the mixture of acetone/tween/DMSO/water not containing the active material. After 24 hours, the plants are contaminated by spraying the leaves with an aqueous suspension of cryopreserved Septoria tritici spores (500 000 spores per ml). The contaminated wheat plants are incubated for 72 hours at 18° C. and at 100% relative humidity, and then for 21 days at 90% relative humidity. Grading (% of efficacy) is carried out 24 days after the contamination, in comparison with the control plants.

Data set [7] is described as follows: logP by HPLC on reversed phase columns (EEC directive 79/831 Annex V.A8). Conditions: for chromatographic logP: pH 2.7; for logP: method [a]: LC-MS at pH 2.7, 0.1% formic acid in water / acetonitrile, compounds of formula (I), Table 1. The class given is physicochemical.
Data set [8] has as its system Botrytis cinerea. Put plainly: In vivo preventive test on Botrytis cinerea (grey mould). The conditions noted are these: 500 ppm, gherkin plants sprayed 24 h before contamination, graded 4 to 5 days after contamination. The procedure:
Gherkin plants (“Vert petit de Paris” variety), sown in starter cups on a 50/50 peat soil-pozzolana substrate and grown at 24° C., are treated at the Z11 cotyledon stage by spraying with the active ingredient prepared as described above. Plants, used as controls, are treated with the mixture of acetone/tween/DMSO/water not containing the active material. After 24 hours, the plants are contaminated by spraying the cotyledons with an aqueous suspension of cryopreserved Botrytis cinerea spores (50 000 spores per ml). The spores are suspended in a nutrient solution composed of 10 g/L of PDB, 50 g/L of D-Fructose, 2 g/L of NH4NO3 and 1 g/L of KH2PO4. The contaminated gherkin plants are incubated at 17° C. and at 90% relative humidity.

The test system of data set [9] is Pyricularia oryzae. The class given is in vivo. The conditions noted are these: 500 ppm, rice plants sprayed 24 h before contamination, graded 6 days after contamination.
The mark [10] stands for this setting: 500 ppm, wheat plants sprayed 24 h before contamination.
Where [11] appears, read: 500 ppm, gherkin plants sprayed 24 h before contamination.
[12] abbreviates: 500 ppm, barley plants sprayed 24 h before contamination.
Setting [13] is: preventive, dose of 500 ppm, grading 11 days after contamination.
The mark [14] stands for this setting: 100 ppm, graded 11 days after contamination.

The chromatographic logP is lipophilicity estimated from chromatographic retention. Low readings indicate a more hydrophilic compound, high ones a more lipophilic compound. For the compound `CC1c2cccc(NC(=O)c3cn(C)nc3C(F)F)c2CC12CCCC2` (stereo not shown) [Example 10, 3-(difluoromethyl)-1-methyl-N-(1′-methyl-1′,3′-dihydrospiro[cyclopentane-1,2′-inden]-4′-yl)-1H-pyrazole-4-carboxamide], the Eff. % in data set [1] (setting [10]) was determined as 97%; in data set [2] (setting [11]) it was 100%; in [3] it was 93%; in data set [4] (setting [12]), 83%; in [5] (setting [13]) it was 100%; in [6], 100%. This compound also yielded a chromatographic logP in data set [7] of 3.96.
In the case of `CC1Cc2c(NC(=O)c3cnn(C)c3C(F)(F)F)cccc2C1(C)C` (stereo not shown) [Example 17], the Eff. % in data set [8] is listed as 94%; in data set [1] (setting [10]), 98%; in data set [5] (setting [13]), 100%. Also, the logP in data set [7] is 3.73[a].
For `CCC1Cc2cccc(NC(=O)c3cn(C)nc3C(F)F)c2C1` (stereo not shown) [Example 27], the Eff. % in data set [1] (setting [10]) is recorded as 100%; in data set [2] (setting [11]), 100%; in [3] it was 79%; in data set [4] (setting [12]), 97%; in data set [5] (setting [13]) it was 100%; in [6], 100%. In addition, the logP in data set [7] is 3.35[a].
Regarding `CC(C)C1Cc2c(NC(=O)c3c(C(F)(F)F)nn(C)c3F)cccc2C1(C)C` (racemic) [Example 66], the Eff. % in [1] (setting [10]) was 98%; in [2] (setting [11]), 98%; in [3], 79%; in data set [4] (setting [12]), 83%; in data set [5] (setting [13]) it was 100%. Also, the logP in data set [7] is 4.82[a].
Consider `CCc1c(C(=O)Nc2cccc3c2CC(C)C3(C)C)cnn1C` (stereo not shown) [Example 20], for which the Eff. % in [3] is 97%; in data set [4] (setting [12]), 100%; in data set [6] it was 97%. Further, the logP in data set [7] is 3.37[a].
Consider `CC(C)C1Cc2cccc(NC(=O)c3cn(C)nc3C(F)F)c2C1` (stereo not shown) [Example 3], for which the Eff. % in data set [8] is on record as 85%; in [1] (setting [10]), 94%; in data set [2] (setting [11]), 100%; in data set [3], 92%; in [4] (setting [12]) it was 97%; in data set [5] (setting [13]), 100%. For the same compound, the Eff. % in data set [6] was determined as 96%.
In the case of `CC1Cc2c(NC(=S)c3cn(C)nc3C(F)F)cccc2C1(C)C` (stereo not shown) [Example 28], the Eff. % in [2] (setting [11]) was 100%; in data set [5] (setting [13]) it was 100%; in [9], 93%; in data set [6], 83%. Further, the logP in data set [7] was 3.85[a].
For `Cn1cc(C(=O)Nc2cccc3c2CC2(CCCC2)C3)c(C(F)F)n1` [Example 25], the Eff. % in data set [1] (setting [10]) is 94%; in data set [2] (setting [11]) it was 95%; in data set [3], 71%; in data set [4] (setting [12]), 71%; in data set [5] (setting [13]), 100%. For the same compound, in [7], the logP was 3.74[a].
Take `Cc1nn(C)c(F)c1C(=O)Nc1cccc2c1C(C)C(C)C2(C)C` (stereo not shown) [Example 33]: the Eff. % in [8] is 100%; in [1] (setting [10]) it was 98%; in [2] (setting [11]), 100%; in [3], 92%; in data set [4] (setting [12]), 97%; in data set [5] (setting [13]) it was 100%. For the same compound, the Eff. % in data set [6] came out at 97%. Moreover, the Efficacy result in data set [4] (100 ppm, barley plants) is “at least 80%”. In data set [7], the logP is 3.52[a].
On to `CCC1Cc2c(NC(=O)c3c(C)nn(C)c3F)cccc2C1(C)C` (stereo not shown) [Example 37], for which the Eff. % in [1] (setting [10]) was determined as 100%; in [2] (setting [11]), 100%; in data set [3], 90%; in data set [4] (setting [12]), 83%; in [5] (setting [13]) it was 100%; in data set [6], 71%. The logP in data set [7] is 3.99[a].
Take `Cc1nn(C)c(C)c1C(=O)Nc1cccc2c1C(C)C(C)C2(C)C` (stereo not shown) [Example 16]: the values for the Eff. % in data set [8], in data set [1] (setting [10]) and in data set [5] (setting [13]) were 100%, 98% and 100%, respectively. In addition, in data set [7], the logP is 3.15[a].
With `Cc1nn(C)c(C)c1C(=O)Nc1cccc2c1CC(C)(C)C2C` (stereo not shown) [Example 13], the Eff. % was 100% in data set [1] (setting [10]); 93% in [3]; 75% in [4] (setting [12]); 100% in data set [5] (setting [13]); 83% in data set [9]. The logP in data set [7] was 3.13[a].
On to `Cc1nn(C)c(F)c1C(=O)Nc1cccc2c1CC(C)C2(C)C` (stereo not shown) [Example 8], for which the Eff. % in [1] (setting [10]) was found to be 100%; in data set [3], 79%; in [5] (setting [13]), 100%; in data set [9], 83%. In addition, the Efficacy in [4] (100 ppm, barley plants) came out at 83%. Besides, in data set [7], the logP was 3.52[a].
Consider `CCC1Cc2c(NC(=O)c3cn(C)nc3C(F)F)cccc2C1(C)C` (stereo not shown) [Example 36], for which the Eff. % amounted to 98% in [1] (setting [10]); 100% in data set [2] (setting [11]); 75% in [4] (setting [12]); 100% in [5] (setting [13]); 86% in [6]. Moreover, the logP in data set [7] is 3.96[a].
`CC(C)C1Cc2c(NC(=S)c3cn(C)nc3C(F)(F)F)cccc2C1(C)C` (racemic) [Example 86]: the Eff. % in data set [1] (100 ppm, wheat plants) was 100%; in data set [2] (100 ppm, gherkin plants), 100%; in [4] (100 ppm, barley plants), 100%; in data set [5] (setting [14]), 100%. In addition, in data set [7], the logP is 4.78[a].
For the compound `CC(C)C1Cc2c(NC(=S)c3cn(C)nc3C(F)F)cccc2C1(C)C` (stereo not shown) [Example 77, 3-(difluoromethyl)-N-(2-isopropyl-1,1-dimethyl-2,3-dihydro-1H-inden-4-yl)-1-methyl-1H-pyrazole-4-carbothioamide], the Eff. % in data set [1] (100 ppm, wheat plants) is on record as 100%; in data set [2] (100 ppm, gherkin plants) it was 100%; in [4] (100 ppm, barley plants), 100%; in [5] (setting [14]), 100%. The chromatographic logP in data set [7] was 4.54.
